Converted amounts (≈) assume the structure as drawn. Read-outs that look alike come from different tables or passages of the source.
Tests used:
Assay type in all cases: cell-based
[1] = tested on: Staphylococcus haemolyticus; test: MIC, CLSI broth microdilution, clinical isolates; conditions: Staphylococcus haemolyticus (N = 101)
[2] = tested on: Lancefield group C, F, G streptococci; test: MIC, CLSI broth microdilution, clinical isolates; conditions: G streptococci (N = 50)
Streptococcus pneumoniae = test: MIC, CLSI broth microdilution, clinical isolates
Staphylococcus aureus = test: MIC, CLSI broth microdilution, clinical isolates; conditions: for MIC50 / MIC90: Staphylococcus aureus
Streptococcus pyogenes = test: MIC, CLSI broth microdilution, clinical isolates; conditions: Streptococcus pyogenes (N = 101)
Morganella morganii = test: MIC, CLSI broth microdilution, clinical isolates; conditions: Morganella morganii (N = 51)
Legionella pneumophila = test: microbe, parasite or virus in culture
[3] = tested on: Staphylococcus epidermidis; test: MIC, CLSI broth microdilution, clinical isolates; conditions: for MIC50: Staphylococcus epidermidis
Haemophilus influenzae = test: MIC, CLSI broth microdilution, clinical isolates; conditions: for MIC50 / MIC90: Haemophilus influenzae
Citrobacter koseri = test: MIC, CLSI broth microdilution, clinical isolates; conditions: Citrobacter koseri (N = 100)
Streptococcus agalactiae = test: MIC, CLSI broth microdilution, clinical isolates; conditions: Streptococcus agalactiae (N = 100)
[4] = tested on: Staphylococcus saprophyticus; test: MIC, CLSI broth microdilution, clinical isolates; conditions: Staphylococcus saprophyticus (N = 101)
[5] = tested on: Staphylococcus lugdunensis; test: MIC, CLSI broth microdilution, clinical isolates; conditions: Staphylococcus lugdunensis (N = 15)
Staphylococcus hominis = test: MIC, CLSI broth microdilution, clinical isolates; conditions: Staphylococcus hominis (N = 50)
Moraxella catarrhalis = test: MIC, CLSI broth microdilution, clinical isolates; conditions: Moraxella catarrhalis (N = 101)
Staphylococcus warneri = test: MIC, CLSI broth microdilution, clinical isolates; conditions: Staphylococcus warneri (N = 50)
S. epidermidis = test: MIC of clinical trial isolates, Studies 373, 433, 434; conditions: Staphylococcus epidermidis, read-out: MIC90
S. pneumoniae = test: MIC and MBC:MIC ratio, recent ocular isolates; conditions: S. pneumoniae (N = 35), recent ocular isolates
S. aureus = test: MIC of clinical trial isolates, Studies 373, 433, 434; conditions: Staphylococcus aureus
Viridans streptococci = test: MIC, CLSI broth microdilution, clinical isolates; conditions: Viridans streptococci (N = 156)
Klebsiella oxytoca = test: MIC, CLSI broth microdilution, clinical isolates; conditions: Klebsiella oxytoca (N = 50)
[6] = Streptococcus pneumoniae (PSSP, N = 31)
[7] = Staphylococcus aureus (CNS, N = 16)
[8] = Staphylococcus aureus (CS, N = 14)
[9] = Staphylococcus aureus (all phenotypes, N = 30)
[10] = MRSA, Staphylococcus aureus (MRSA, N = 11)
[11] = MSSA, Staphylococcus aureus (MSSA, N = 19)
[12] = Staphylococcus epidermidis (CNS, N = 6)
[13] = Staphylococcus epidermidis (CS, N = 9)
[14] = Staphylococcus epidermidis (MSSE, N = 6)
[15] = Staphylococcus epidermidis (all phenotypes, N = 15)
[16] = Haemophilus influenzae (all phenotypes, N = 40)
[17] = Haemophilus influenzae (bla negative, N = 24)
[18] = Haemophilus influenzae (bla positive, N = 16)

## CC[C@H]1OC(=O)[C@H](C)[C@@H](O[C@H]2C[C@@](C)(OC)[C@@H](O)[C@H](C)O2)[C@H](C)[C@@H](O[C@@H]2O[C@H](C)C[C@H](N(C)C)[C@H]2O)[C@](C)(O)C[C@@H](C)CN(C)[C@H](C)[C@@H](O)[C@]1(C)O [Azithromycin]
[1]
  % S: 26.7%
  MIC50: > 8 µg/mL
  MIC90: > 8 µg/mL
[2]
  % S: 74.0%
[2]; read-out: MIC50
  MIC50: 0.06 µg/mL (≈ 0.0801 µM)
[2]; read-out: MIC90
  MIC90: > 8 µg/mL
Streptococcus pneumoniae; Streptococcus pneumoniae (PISP, N = 2)
  % S: 0.0%
Streptococcus pneumoniae; Streptococcus pneumoniae (PRSP, N = 2)
  % S: 50.0%
Streptococcus pneumoniae; [6]
  % S: 67.7%
  MIC50: 0.06 µg/mL (≈ 0.0801 µM)
  MIC90: >8 µg/mL
Streptococcus pneumoniae; Streptococcus pneumoniae (all phenotypes, N = 35)
  % S: 62.9%
Streptococcus pneumoniae; Streptococcus pneumoniae (all phenotypes, N = 35), read-out: MIC50
  MIC50: 0.06 µg/mL (≈ 0.0801 µM)
Streptococcus pneumoniae; Streptococcus pneumoniae (all phenotypes, N = 35), read-out: MIC90
  MIC90: > 8 µg/mL
Staphylococcus aureus; [7]
  % S: 43.8%
  MIC50: > 8 µg/mL
  MIC90: > 8 µg/mL
Staphylococcus aureus; [8]
  % S: 64.3%
  MIC50: 1 µg/mL (≈ 1.34 µM)
  MIC90: > 8 µg/mL
Staphylococcus aureus; Staphylococcus aureus (MRSA, N = 11)
  % S: 9.1%
Staphylococcus aureus; Staphylococcus aureus (MSSA, N = 19)
  % S: 78.9%
Staphylococcus aureus; [9]
  % S: 53.3%
  MIC50: 1 µg/mL (≈ 1.34 µM)
  MIC90: > 8 µg/mL
Staphylococcus aureus; [10]
  MIC50: > 8 µg/mL
  MIC90: > 8 µg/mL
Staphylococcus aureus; [11]
  MIC50: 1 µg/mL (≈ 1.34 µM)
  MIC90: > 8 µg/mL
Streptococcus pyogenes
  % S: 85.1%
Streptococcus pyogenes; read-out: MIC50
  MIC50: 0.06 µg/mL (≈ 0.0801 µM)
Streptococcus pyogenes; read-out: MIC90
  MIC90: 8 µg/mL (≈ 10.7 µM)
Morganella morganii
  MIC50: > 8 µg/mL
  MIC90: > 8 µg/mL
Legionella pneumophila; Legionella pneumophila
  MIC50: 0.12 µg/mL (≈ 0.16 µM)
  MIC90: 1 µg/mL (≈ 1.34 µM)
Legionella pneumophila; Legionella pneumophila (N = 50)
  MIC Range: 0.03 to 1 µg/mL
[3]; [12]
  % S: 16.7%
  MIC50: > 8 µg/mL
[3]; [13]
  % S: 33.3%
  MIC50: > 8 µg/mL
[3]; Staphylococcus epidermidis (MRSE, N = 9)
  % S: 0.0%
[3]; [14]
  % S: 66.7%
  MIC50: 0.5 µg/mL (≈ 0.668 µM)
[3]; [15]
  % S: 26.7%
  MIC90: > 8 µg/mL
  MIC50: > 8 µg/mL
[3]; MRSE, Staphylococcus epidermidis (MRSE, N = 9)
  MIC50: > 8 µg/mL
Haemophilus influenzae; [16]
  % S: 100.0%
  MIC Range: ≦0.004-2 μg/mL
  MIC50: 0.5 µg/mL (≈ 0.668 µM)
  MIC90: 1 µg/mL (≈ 1.34 µM)
Haemophilus influenzae; [17]
  % S: 100.0%
  MIC Range: ≦0.004-2 μg/mL
  MIC50: 0.5 µg/mL (≈ 0.668 µM)
  MIC90: 2 µg/mL (≈ 2.67 µM)
Haemophilus influenzae; [18]
  % S: 100.0%
  MIC Range: 0.06 to 1 µg/mL
  MIC50: 0.5 µg/mL (≈ 0.668 µM)
  MIC90: 1 µg/mL (≈ 1.34 µM)
Citrobacter koseri
  MIC50: 8 µg/mL (≈ 10.7 µM)
  MIC90: > 8 µg/mL
Streptococcus agalactiae
  % S: 73.0%
Streptococcus agalactiae; read-out: MIC50
  MIC50: 0.06 µg/mL (≈ 0.0801 µM)
Streptococcus agalactiae; read-out: MIC90
  MIC90: > 8 µg/mL
[4]
  % S: 54.5%
  MIC50: 1 µg/mL (≈ 1.34 µM)
  MIC90: > 8 µg/mL
[5]
  % S: 46.7%
  MIC50: > 8 µg/mL
  MIC90: > 8 µg/mL
Staphylococcus hominis
  % S: 16.0%
  MIC50: > 8 µg/mL
  MIC90: > 8 µg/mL
Moraxella catarrhalis
  % S: 100.0%
  MIC50: 0.03 µg/mL (≈ 0.0401 µM)
  MIC90: 0.03 µg/mL (≈ 0.0401 µM)
  MIC Range: 0.015 to 0.06 µg/mL
Staphylococcus warneri
  % S: 34.0%
  MIC50: > 8 µg/mL
  MIC90: > 8 µg/mL
S. epidermidis; MRSE, S. epidermidis MRSE-CR, N 24
  MIC90: > 8 µg/mL
S. epidermidis; MRSE, S. epidermidis MRSE-CS, N 27
  MIC90: > 8 µg/mL
S. epidermidis; S. epidermidis MSSE-CR, N 10
  MIC90: > 8 µg/mL
S. epidermidis; S. epidermidis MSSE-CS, N 50
  MIC90: > 8 µg/mL
S. pneumoniae
  % S (susceptible isolates, CLSI): 62.9%
S. pneumoniae; Streptococcus pneumoniae
  MIC50: 0.06 µg/mL
  MIC90: > 8 µg/mL
S. aureus; MRSA, S. aureus MRSA-CR, N 17, read-out: MIC90
  MIC90: > 8 µg/mL
S. aureus; MRSA, S. aureus MRSA-CS, N 9, read-out: MIC90 (due to limited isolates, highest MIC value is given)
  MIC90: > 8 µg/mL
S. aureus; MSSA, S. aureus MSSA-CR, N 17, read-out: MIC90
  MIC90: > 8 µg/mL
S. aureus; MSSA, S. aureus MSSA-CS, N 144, read-out: MIC90
  MIC90: > 8 µg/mL
Viridans streptococci
  % S: 53.2%
Viridans streptococci; read-out: MIC50
  MIC50: 0.06 µg/mL (≈ 0.0801 µM)
Viridans streptococci; read-out: MIC90
  MIC90: > 8 µg/mL
Klebsiella oxytoca
  MIC50: > 8 µg/mL
  MIC90: > 8 µg/mL

Reference: patent US8415342B2, “Besifloxacin ophthalmic composition for the treatment or control of infection” (Bausch & Lomb Incorporated, priority 2008, dated 2013)
